From ChEMBL document CHEMBL4619828, “Discovery of Potent and Orally Bioavailable Small Molecule Antagonists of Toll-like Receptors 7/8/9 (TLR7/8/9)” (ACS Med Chem Lett, 2020) come the findings set out here.

A value given as a limit tells only on which side of the number the result lay.

Series [1] has as its target T1, Toll-like receptor 9 (Homo sapiens, UniProt Q9NR96).
T1 sequence (Q9NR96 whole entry): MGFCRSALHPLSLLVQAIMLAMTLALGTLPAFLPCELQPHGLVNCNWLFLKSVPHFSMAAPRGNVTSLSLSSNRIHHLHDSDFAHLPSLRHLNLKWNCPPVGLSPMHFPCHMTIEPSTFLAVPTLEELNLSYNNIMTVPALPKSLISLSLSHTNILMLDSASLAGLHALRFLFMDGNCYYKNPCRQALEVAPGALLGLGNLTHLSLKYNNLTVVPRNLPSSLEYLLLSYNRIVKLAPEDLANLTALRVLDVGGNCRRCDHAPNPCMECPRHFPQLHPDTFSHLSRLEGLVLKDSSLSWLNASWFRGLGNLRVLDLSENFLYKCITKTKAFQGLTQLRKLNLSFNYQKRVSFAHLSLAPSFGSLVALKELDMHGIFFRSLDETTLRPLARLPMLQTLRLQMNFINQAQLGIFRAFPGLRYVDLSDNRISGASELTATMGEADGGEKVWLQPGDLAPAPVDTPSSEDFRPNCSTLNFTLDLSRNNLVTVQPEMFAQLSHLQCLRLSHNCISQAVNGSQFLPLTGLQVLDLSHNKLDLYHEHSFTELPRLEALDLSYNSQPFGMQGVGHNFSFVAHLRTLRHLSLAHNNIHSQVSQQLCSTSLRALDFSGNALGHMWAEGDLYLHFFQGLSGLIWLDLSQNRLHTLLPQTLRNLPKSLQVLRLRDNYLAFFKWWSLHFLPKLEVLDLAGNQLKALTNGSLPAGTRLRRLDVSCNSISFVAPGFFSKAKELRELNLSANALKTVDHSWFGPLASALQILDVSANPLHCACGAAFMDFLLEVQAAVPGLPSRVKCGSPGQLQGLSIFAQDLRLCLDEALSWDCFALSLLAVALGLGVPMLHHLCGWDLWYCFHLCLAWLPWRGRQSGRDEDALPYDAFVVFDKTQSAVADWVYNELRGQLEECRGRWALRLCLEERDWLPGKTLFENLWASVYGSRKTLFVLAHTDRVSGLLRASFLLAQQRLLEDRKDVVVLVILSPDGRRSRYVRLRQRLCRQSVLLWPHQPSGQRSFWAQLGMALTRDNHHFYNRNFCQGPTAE
As to the kind of experiment: Antagonist activity at human TLR9 overexpressed in HEK-Blue cells assessed as inhibition of ODN2006-induced NFkappaB and AP-1 activation preincubated for 30 mins followed by ODN2006 stimulation measured after 22 hrs by quanti-blue SEAP assay. Format: cell-based.

Series [2] in a line: Clearance in mouse at 3 mg/kg, iv. Format: ADME, organism-based. The note with it: in vivo.
Series [3] is described as follows: Tmax in mouse at 15 mg/kg, po. Type of series: ADME, organism-based. As to conditions: in vivo.
In a further series the target is T2, Toll-like receptor 7 (Mus musculus, UniProt P58681).
T2 sequence (P58681 whole entry): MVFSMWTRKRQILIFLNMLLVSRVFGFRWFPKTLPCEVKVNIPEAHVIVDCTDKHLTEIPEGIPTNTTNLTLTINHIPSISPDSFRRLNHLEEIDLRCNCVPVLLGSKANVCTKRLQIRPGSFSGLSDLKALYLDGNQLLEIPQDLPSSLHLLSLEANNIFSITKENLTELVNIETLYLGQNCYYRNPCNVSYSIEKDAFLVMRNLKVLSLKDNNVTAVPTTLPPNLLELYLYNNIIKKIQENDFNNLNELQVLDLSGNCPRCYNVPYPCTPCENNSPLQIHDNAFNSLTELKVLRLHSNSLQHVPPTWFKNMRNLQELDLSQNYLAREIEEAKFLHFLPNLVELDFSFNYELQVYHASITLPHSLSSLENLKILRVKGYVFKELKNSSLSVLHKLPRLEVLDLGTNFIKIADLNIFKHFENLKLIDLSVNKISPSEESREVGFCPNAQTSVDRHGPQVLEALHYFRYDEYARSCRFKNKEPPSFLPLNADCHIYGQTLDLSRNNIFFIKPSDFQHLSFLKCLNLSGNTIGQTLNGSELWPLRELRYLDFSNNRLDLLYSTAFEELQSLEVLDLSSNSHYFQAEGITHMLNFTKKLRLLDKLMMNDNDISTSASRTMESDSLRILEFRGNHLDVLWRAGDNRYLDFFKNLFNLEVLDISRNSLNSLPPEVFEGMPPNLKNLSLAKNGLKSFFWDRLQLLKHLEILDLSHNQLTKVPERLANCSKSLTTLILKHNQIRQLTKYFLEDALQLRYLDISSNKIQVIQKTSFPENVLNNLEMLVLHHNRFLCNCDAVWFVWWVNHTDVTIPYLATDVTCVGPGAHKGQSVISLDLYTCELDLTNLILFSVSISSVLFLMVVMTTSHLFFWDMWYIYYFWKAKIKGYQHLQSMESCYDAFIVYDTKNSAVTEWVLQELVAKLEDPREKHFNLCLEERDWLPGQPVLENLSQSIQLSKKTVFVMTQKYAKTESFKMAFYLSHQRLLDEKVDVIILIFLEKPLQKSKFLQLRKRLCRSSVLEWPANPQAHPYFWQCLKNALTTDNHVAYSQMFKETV
As to the kind of experiment: In vivo antagonist activity at TLR7 in po dosed C57BL/6 mouse assessed as reduction of gardiquimod-induced IL-6 production pretreated for 30 mins followed by gardiquimod-stimulation and measured after 120 mins by ELISA.

The target in series [4] is T1, Toll-like receptor 9. In words: Agonist activity at human TLR9 overexpressed in HEK-Blue cells assessed as NFkappaB expression by reporter gene assay. Format: cell-based.

In the case of `CNCCN1CCC(c2ccc3[nH]c(-c4ccc(OC)c(OC)c4)c(C(C)C)c3c2)CC1`, the IC50 on Toll-like receptor 9 [1] is 700 nM; at Toll-like receptor 9 [4], > 50000 nM. The same compound displayed a clearance in series [2] of 7.7 mL/min/kg. Besides, the Tmax in series [3] was 30 min. Moreover, the 50% effective concentration (EC50) on Toll-like receptor 7 is 2.4 nM.
